Experimental data as given in patent US11149011B2, “Compounds and methods for IDO and TDO modulation, and indications therefor” (Plexxikon Inc., priority 2018, dated 2021).

What was measured:
IDO1 = molecular target: T1, IDO1 (Homo sapiens, UniProt P14902); experiment: IDO enzymatic assay; type: biochemical; conditions: geometric mean; read-out: IDO1 GMean: IC50 (μM) (Biochemical Assay)
T1 construct: His tag (N); made in house; host or cells: E. coli
Outline: (§1)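 Kynurenine formed after TCA hydrolysis (30 min, 50 °C) was quantified relative to full-reaction and no-enzyme controls, and IC50s were fitted. TDO reactions used 1 nM enzyme with 350 μM Trp and 0.4 μM methylene blue for 70 min; IDO reactions used 6 nM enzyme, 10 μM Trp, 5 μM methylene blue for 20 min; both at pH 6.5, room temperature.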

[1] = molecular target: T2, IDO1-expressing HEK293 cell clones (Homo sapiens, UniProt P14902); experiment: Cell based kynurenine assay, IDO1-expressing HEK293 cell clones; conditions: HEK293 cells, 24 hours of incubation, geometric mean; read-out: HEK293 IDO1 Kynurenine GMean IC50 (μM) (Cellular Assay)
T2 construct: expressed in transfected cells; host or cells: HEK293
Outline: (§2)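 IC50s come from nonlinear regression of % inhibition of kynurenine in culture supernatant after 24 hours of compound exposure. Controls were 0.2% DMSO-treated cells and media alone. Cells were stable human IDO1- or TDO-expressing HEK293 clones (CMV promoter), plated at 2.5×10^4 per well.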

TDO = molecular target: T3, TDO (Homo sapiens, UniProt P48775); experiment: TDO enzymatic assay; conditions: geometric mean; read-out: TDO GMean: IC50 (μM) (Biochemical Assay)
T3 construct: His tag (N); made in house; host or cells: E. coli
Outline: as §1

[2] = molecular target: T4, TDO-expressing HEK293 cell clones (Homo sapiens, UniProt P48775); experiment: Cell based kynurenine assay, TDO-expressing HEK293 cell clones; conditions: HEK293 cells, 24 hours of incubation, geometric mean; read-out: HEK293 TDO Kynurenine GMean IC50 (μM) (Cellular Assay)
T4 construct: expressed in transfected cells; host or cells: HEK293
Outline: as §2

T2 sequence (P14902 whole entry): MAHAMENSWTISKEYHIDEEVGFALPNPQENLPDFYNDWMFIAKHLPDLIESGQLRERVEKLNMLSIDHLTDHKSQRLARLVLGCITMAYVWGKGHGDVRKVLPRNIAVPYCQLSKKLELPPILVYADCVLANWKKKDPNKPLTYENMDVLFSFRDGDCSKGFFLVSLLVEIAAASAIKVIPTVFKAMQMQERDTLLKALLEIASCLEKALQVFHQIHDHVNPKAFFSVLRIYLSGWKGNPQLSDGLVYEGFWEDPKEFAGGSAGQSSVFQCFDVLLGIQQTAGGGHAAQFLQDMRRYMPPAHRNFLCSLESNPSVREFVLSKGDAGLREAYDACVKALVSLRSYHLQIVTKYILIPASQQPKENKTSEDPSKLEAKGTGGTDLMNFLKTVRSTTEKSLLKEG
T1 sequence (P14902 whole entry): as above
T3 sequence (P48775 whole entry): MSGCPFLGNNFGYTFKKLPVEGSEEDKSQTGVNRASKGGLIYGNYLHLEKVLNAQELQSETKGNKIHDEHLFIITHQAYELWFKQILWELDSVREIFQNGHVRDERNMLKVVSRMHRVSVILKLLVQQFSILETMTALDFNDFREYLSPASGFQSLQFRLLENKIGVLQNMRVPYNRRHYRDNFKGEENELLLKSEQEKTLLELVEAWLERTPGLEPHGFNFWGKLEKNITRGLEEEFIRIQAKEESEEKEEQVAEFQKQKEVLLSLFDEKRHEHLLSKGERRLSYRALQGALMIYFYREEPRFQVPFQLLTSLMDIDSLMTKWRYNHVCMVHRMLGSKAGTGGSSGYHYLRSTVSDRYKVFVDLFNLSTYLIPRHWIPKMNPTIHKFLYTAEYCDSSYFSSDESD
T4 sequence (P48775 whole entry): as above

SMILES | IC50 (IDO1) | IC50 [1] | IC50 (TDO) | IC50 [2]
CC(C)(C1CCN(C(=O)CO)CC1)[C@@H](O)c1cc(Cl)cc2[nH]ncc12 [Compound P-0146, (R)-1-(4-(1-(6-chloro-1H-indazol-4-yl)-1-hydroxy-2-methylpropan-2-yl)piperidin-1-yl)-2-hydroxyethan-1-one] | 0.0001 to 10 µM | > 10 µM | 0.0001 to 10 µM | 0.0001 to 10 µM
CCS(=O)(=O)N1CCC(C(C)(C)[C@H](O)c2cc(Cl)cc3[nH]ncc23)CC1 [Compound P-0147, (S)-1-(6-chloro-1H-indazol-4-yl)-2-(1-(ethylsulfonyl)piperidin-4-yl)-2-methylpropan-1-ol] | 0.0001 to 10 µM | > 10 µM | 0.0001 to 10 µM | 0.0001 to 10 µM
CCS(=O)(=O)N1CCC(C(C)(C)[C@@H](O)c2cc(Cl)cc3[nH]ncc23)CC1 [Compound P-0148, (R)-1-(6-chloro-1H-indazol-4-yl)-2-(1-(ethylsulfonyl)piperidin-4-yl)-2-methylpropan-1-ol] | 0.0001 to 10 µM | > 10 µM | 0.0001 to 10 µM | 0.0001 to 10 µM
CC(C)(C1CCN(C(=O)NOCC2CC2)CC1)[C@H](O)c1cc(Cl)cc2cn[nH]c12 [Compound P-0600, (S)-4-(1-(5-chloro-1H-indazol-7-yl)-1-hydroxy-2-methylpropan-2-yl)-N-(cyclopropylmethoxy)piperidine-1-carboxamide] | 0.0001 to 10 µM | 0.0001 to 10 µM | 0.0001 to 10 µM | 0.0001 to 10 µM
